Data: patent publication US6893821B2, “Agents that modulate DNA-PK activity and methods of use thereof” (The Regents of the University of California, priority 2000, dated 2005)
“Also recorded” adds a separate entry of the source.

Tests used:
[1] = tested on: IL-6, IL-12 message in liver; test: RT-PCR for IL-6 and IL-12 message in livers of mice injected i.v. with ODN; assay type: in vivo; settings: mice i.v. 200 μl (1 μg/μl in PBS) of ss or ds ODN; 2.5 hours
[2] = molecular target: T1, Ku antigen (Ku70/Ku80 heterodimer) (Mus musculus, UniProt P23475+P27641); test: EMSA inhibition study: cold ODN vs [32P]-labeled ds-ISS-ODN binding to Ku (affinity column fraction 20)
T1 construct: from tissue; host or cells: mouse liver (BALB/c)
Experimental: Purification of the ISS binding protein was accomplished by sequential ion exchange, heparin and ISS-ODN affinity chromatography, as follows. Due to the relative small tissue weight per spleen, liver lysate was used after confirming its reactivity to in vivo ISS injection, as described above. Crude liver extracts from 220 mice (BALB/c, Jackson Lab., Bar Harbour, Me.) or 15 New Zealand White rabbits (Simunek, Vista, Calif.) were prepared in homogenization buffer (20 mM HEPES, pH 7.6, 250 mM KCl, 0.1 mM EDTA, 0.5 mM EGTA, 20% glycerol) with 250 mM KCl and protease and phosphatase inhibitors and then centrifuged at 100,000×g for 1.5 hours at 4° C. The supernatant (400 ml) was filtered and loaded onto a Porous 20 QE column (17 ml, Pharmacia). Two μl (10 μg) of each fraction were used in a gel retardation assay to identify the location of proteins containing DNA binding activity using [^32P]-labeled ds-ISS-ODN as a probe. Fractions containing ISS-ODN binding activity were pooled (450 ml), buffered exchanged to low salt (50 mM KCl) and loaded onto a Heparin column (2 ml). The active fractions were subsequently loaded onto a 2 ml ds-ISS-ODN affinity column [CNBr-activated Sepharose 4B (Pharmacia) coupled to 320 μg of ds-ISS-ODNs with the sequence 5′-[…]-3′; SEQ ID NO: 21]. The column was washed with 8 ml of homogenization buffer containing 50 mM KCl and the bound proteins were eluted with a 20 ml linear gradient of 50 mM to 1.55 M KCl. One-ml fractions were collected and 2 μl of each were used to test for DNA binding activity. The active fractions were concentrated, separated by SDS-PAGE and stained with Coomassie Blue. The appearance of two bands with estimated molecular weights of 70 KDa and 80 KDa correlated with the DNA binding activity. Sequence analysis (Harvard Microsequencing Facility) of peptides derived from the two bands identified Ku70 and Ku80, respectively.
Mouse liver extracts were purified through anion (QE), heparin and ISS-based affinity chromatography, as described above. Two μl of each fraction (10 μg) were incubated with [^32 P]-labeled ds-ISS-ODN at 4° C. for 30 minutes. The samples were separated on a 5% acrylamide gel and the protein-DNA complexes were detected by autoradiography. […] The active fractions were separated by sodium dodecyl sulfate-polyacrylamide gel electrophoresis (SDS-PAGE), stained with Coomassie blue and micro-sequenced.
To verify the binding specificity of the Ku protein to ISS-ODN, inhibition studies were performed using cold ss or ds ISS or mutated (M, i.e., control) ODNs. Ten μg of fraction 20 from the affinity column were incubated with [^32P]-labeled ISS-ODN in the presence of unlabeled (0.1, 0.2 and 0.4 μg, respectively) ss-ISS-ODN (lanes 3-5), ds-ISS-ODN (lanes 7-9), ss-M-ODN (lanes 11-13) or ds-M-ODN (lanes 15-17).

[3] = tested on: NF-κB; test: NF-κB activation in treated BMDM (EMSA); assay type: cell-based, mice
Experimental: (§1) The ODNs (ps-ss) used include an ISS-ODN with an active CpG motif (AACGTT), a methylated ISS-ODN at the ^5C of the CpG dinucleotide (AA*CGTT) and various control ODNs. These ODNs were incubated at concentrations of 0, 0.1, 0.3, or 1 ng/reaction. The po-ISS-ODN was incubated at concentration of 20, 50 or 100 ng/reaction. The po-ds-ISS-ODN was incubated at concentration of 0, 0.5, 1, 2, 5 or 10 ng/reaction. The bacterial or calf thymus DNAs were each incubated at concentration of 1, 2 or 5 ng/reaction. Electrophoretic gel mobility shift assay (EMSA) was performed as previously described. Chu et al. (1999) Immunity 11:721-731; and Li et al., 1999, supra). In vitro IKK kinase assays were performed using purified IKK derived from Sf9 insect cell lysates as was previously described. Zandi et al. (1998) Science 281:1360-1363.

[4] = molecular target: T2, DNA-PK (Homo sapiens, UniProt P12956+P13010+P78527); test: In vitro DNA-PK phosphorylation assay (affinity-purified DNA-PK, GST-p53 (1-70) substrate); assay type: biochemical; settings: 30° C., 30 minutes; ps-ss ODNs 0-1, po-ISS-ODN 20-100, po-ds-ISS-ODN 0-10, genomic DNAs 1-5 ng/reaction
T2 construct: purchased Promega
Experimental: The in vitro DNA-PK phosphorylation assay was performed according to Hammarsten et al. (2000), supra, with modification. Briefly, affinity-purified DNA-PK (Promega, Mo.) was incubated with various DNA preparations (described below), 0.5 μg of GST-p53 (1-70) and 3.3 μCi of γ-^32p-ATP in a 20 μl reaction buffer (10 mM Tris-Cl, 5 mM MgCl2, 0.3 mM EDTA and 10 μM ATP) at 30° C. for 30 minutes. The reaction was stopped by addition of 4× loading buffer. The samples were boiled, loaded on 9% SDS-PAGE, transferred onto a PVDF membrane and visualized by autoradiography.
as §1

[5] = tested on: IKKβ; test: In vitro IKK kinase assay: recombinant IKKβ incubated with DNA-PK with or without ISS-ODN; assay type: biochemical
Experimental: as §1
To explore a role of ISS-activated DNA-PK in IKK activation we tested whether affinity-purified DNA-PK can directly activate recombinant IKKα or IKKβ purified from Sf9 cells (Zandi et al., 1998, supra). […] Furthermore, although DNA-PKcs phosphorylated IκBα that activity was considerably lower than that achieved by IKKβ plus DNA-PK. […] To further confirm the activation of IKKβ by DNA-PK, we performed a coupled-kinase assay. Recombinant IKKβ was pre-incubated with DNA-PK in the presence or absence of ISS-ODN followed by immunoprecipitation of IKKβ and IκB kinase activity was measured. […] We next determined whether DNA-PK phosphorylates IKKβ.

[6] = tested on: IKKα; test: In vitro IKK kinase assay: recombinant IKKα incubated with DNA-PK with ISS-ODN; assay type: biochemical; settings: IKKα incubated with DNA-PK in the presence of ISS-ODN; not beyond DNA-PK alone
Experimental: as §1
To explore a role of ISS-activated DNA-PK in IKK activation we tested whether affinity-purified DNA-PK can directly activate recombinant IKKα or IKKβ purified from Sf9 cells (Zandi et al., 1998, supra). […] Furthermore, although DNA-PKcs phosphorylated IκBα that activity was considerably lower than that achieved by IKKβ plus DNA-PK. […] Recombinant IKKβ was pre-incubated with DNA-PK in the presence or absence of ISS-ODN followed by immunoprecipitation of IKKβ and IκB kinase activity was measured. […] We next determined whether DNA-PK phosphorylates IKKβ.

T1 sequence (P23475 2-608 limits assumed): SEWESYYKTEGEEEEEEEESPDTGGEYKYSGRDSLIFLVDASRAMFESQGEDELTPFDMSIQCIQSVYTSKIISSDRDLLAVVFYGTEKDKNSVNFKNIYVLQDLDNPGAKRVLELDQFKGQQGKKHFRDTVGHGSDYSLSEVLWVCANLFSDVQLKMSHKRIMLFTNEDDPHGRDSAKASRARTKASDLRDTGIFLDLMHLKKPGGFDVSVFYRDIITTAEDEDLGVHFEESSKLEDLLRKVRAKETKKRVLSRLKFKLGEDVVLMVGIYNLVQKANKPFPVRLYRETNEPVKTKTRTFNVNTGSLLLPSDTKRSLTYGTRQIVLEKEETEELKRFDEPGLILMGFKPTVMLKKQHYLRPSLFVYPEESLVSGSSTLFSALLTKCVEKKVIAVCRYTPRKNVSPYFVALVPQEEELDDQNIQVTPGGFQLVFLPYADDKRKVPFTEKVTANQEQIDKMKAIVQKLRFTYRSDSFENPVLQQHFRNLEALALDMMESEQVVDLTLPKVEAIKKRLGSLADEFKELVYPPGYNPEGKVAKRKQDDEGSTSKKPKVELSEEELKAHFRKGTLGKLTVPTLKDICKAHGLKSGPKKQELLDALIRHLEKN
T1 sequence (P27641 whole entry): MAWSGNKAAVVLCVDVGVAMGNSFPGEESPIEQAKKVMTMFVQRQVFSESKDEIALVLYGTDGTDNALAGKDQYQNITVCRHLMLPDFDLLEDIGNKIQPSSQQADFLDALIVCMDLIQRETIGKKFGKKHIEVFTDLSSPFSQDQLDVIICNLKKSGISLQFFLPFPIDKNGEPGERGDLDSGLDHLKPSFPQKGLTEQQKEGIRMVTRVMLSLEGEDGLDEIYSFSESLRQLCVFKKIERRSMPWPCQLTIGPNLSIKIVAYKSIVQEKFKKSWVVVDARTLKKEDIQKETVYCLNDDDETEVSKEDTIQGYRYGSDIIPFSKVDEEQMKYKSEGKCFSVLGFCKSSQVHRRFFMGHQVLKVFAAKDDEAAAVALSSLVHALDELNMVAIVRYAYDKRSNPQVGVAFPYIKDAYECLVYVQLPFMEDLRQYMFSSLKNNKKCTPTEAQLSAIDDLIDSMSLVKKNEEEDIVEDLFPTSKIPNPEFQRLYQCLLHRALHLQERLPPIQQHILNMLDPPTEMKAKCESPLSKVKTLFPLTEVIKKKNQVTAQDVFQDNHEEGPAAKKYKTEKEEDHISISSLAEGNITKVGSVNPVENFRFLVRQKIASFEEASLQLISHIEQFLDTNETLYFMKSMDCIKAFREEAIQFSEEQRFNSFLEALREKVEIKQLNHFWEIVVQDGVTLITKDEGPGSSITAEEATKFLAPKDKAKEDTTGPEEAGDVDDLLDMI

## 5′-TGACTGTGAACGTTCGAGATGA-3′ [ISS-ODN]
[1]
  IL-6 and IL-12 message in liver (RT-PCR): readily detected; also recorded: cytokine induction
[2]
  interaction of Ku with ODN: specific interaction
[3]; ATM-deficient BMDM
  NF-κB activation, wt vs ATM-deficient BMDM: no differences were observed
[3]; DNA-PKcs-/- BMDM
  NF-κB activation: impaired NF-κB activation
[3]; IKKβ-/- Tnfr-/- BMDM (absence of IKKβ)
  NF-κB activation: prevented
[4]
  DNA-PK activity in vitro (phosphorylation of the N-terminal portion of p53): stimulated DNA-PK activity
[5]; incubated with ISS-ODN
  phosphorylation of catalytically inactive IKKβ (KA) by DNA-PK: phosphorylated
[5]; pre-incubation with DNA-PK with or without ISS-ODN, then immunoprecipitation of IKKβ
  activation of IKKβ by DNA-PK, coupled-kinase assay: only activates IKKβ in the presence of ISS-ODN
[5]; recombinant IKKβ incubated with DNA-PK in the presence of ISS-ODN
  kinase activity of IKKβ measured by IκB phosphorylation: further increased
[6]
  IκB kinase activity of IKKα: Only a small enhancement
